“Also recorded” adds a separate entry of the source.
What was measured:
AcCoA levels = assay: Targeted analysis of AcCoA levels in cultured cells (HPLC-MS); type: cell-based, human; conditions: for AcCoA levels: cells kept in rich medium; for cytosolic AcCoA levels: cytosolic fraction; for AcCoA levels in starved cells: nutrient-depleted (starved) cells in vitro
Experimental: Cells were trypsinized, pelleted at 1000 rpm for 4 min, washed with PBS and pelleted again at 1000 rpm for 4 min. Cells were then resuspended in 5 ml of ice-cold hyposmotic buffer and keep on ice for 5 min. Cells were broken to release nuclei using a pre-chilled Dounce homogenizer (20 strokes with a tight pestle) and then were then centrifuged at 228 g.
For in vitro experiments, cell pellets were resuspended in 300 μL of water with HEPES and EDTA (pH 7.4) at 1 mM containing internal standard acetylcoenzyme A (2-C13) at 1 mg/L, vortexed and heated at 100° C. for 1 min. Samples were incubated in liquid nitrogen for 1 min and thawed at room temperature two times. They were let for 1 h at −20° C. and centrifuged at 4° C. during 15 min at 13,000 g. Supernatants were transferred in HPLC vials and injected in HPLC/MS or kept at −80° C. until injection. For in vivo experiments, frozen tissues were placed in ice-cold homogenization tubes containing ceramic beads. Five μL of ice-cold methanol/water (80/20; v/v) were added for 1 mg of tissue. Tissues were homogenized two times for 20 s at 5,500 rpm using Precellys 24 tissue homogenator (Bertin Technologies, Montigny-le-Bretonneux, France). Samples were placed 10 min on ice. Next they were centrifuged at 4° C. during 15 min at 13,000 g. Supernatants were transferred in HPLC vials and injected in HPLC-MS system or kept at −80° C. until injection.
Targeted analyses were performed on Rapid Resolution Liquid Chromatography (RRLC) 1200SL system (Agilent Technologies, Waldbronn, Germany) coupled to a Triple Quadruple QQQ 6410 mass spectrometer (Agilent Technologies). RRLC analysis was done on 150×2.1 mm, 3.5 μm Eclipse Plus SB-Aq column with a pre-column 30 mm×2.1 mm 3.5 μm Eclipse plus (Agilent Technologies) with water containing 10 mmol/L of ammonium acetate and 0.01% of acetic acid in channel A and acetonitrile in channel B in gradient mode at a flow rate of 0.3 mL·min^−1: t=0 min 2% B; t=9 min 95% B; t=11 min 95% B; re-equilibration time of 3 min. Mass spectrometer analysis was done in positive electrospray ionization mode at +4 kV on the QQQ system operating in MRM mode. MRM transitions were optimized with standard of AcCoA and AcCoA A 2-C^13 with direct infusion. Two transitions were recorded for each compound; • AcCoA 810>303 CE (collision energy) 28V; fragmentor 180V • 810>428 CE 20V • AcCoA 2-C13 812>305 CE 28V; fragmentor 180V • 812>428 CE 24V […]

[1] = tested on: cytoplasmic protein acetylation; assay: Immunofluorescence of cytoplasmic acetyl-lysine-containing proteins; type: cell-based, human; conditions: for cytoplasmic protein acetylation: cells kept in rich medium; for cytoplasmic protein acetylation in starved cells: nutrient-depleted (starved) cells in vitro
Experimental: Cells were fixed with 4% PFA for 15 min at room temperature, and permeabilized with 0.1% Triton X-100 for 10 min, except for staining of cytoplasmic acetyl-lysine-containing proteins, in which any permeabilization step further than PFA fixation was avoided. Non-specific binding sites were blocked with 5% bovine serum in PBS, followed by staining with primary antibodies overnight at 4° C. Development was carried out with appropriate AlexaFluor™ conjugates (Molecular Probes-Invitrogen). In the case of cytoplasmic acetyl-lysine staining, an additional step of blocking using anti-acetylated-tubulin antibody (1:200) was applied. Ten μM Hoechst 33342 (Molecular Probes-Invitrogen) was employed for nuclear counterstaining. Fluorescence and confocal fluorescence microscopy assessments were performed on an IRE2 microscope (Lcica Microsystems) equipped with a DC300F camera and with an LSM 510 microscope (Carl Zeiss, Jena, Germany), respectively.
U2OS, HeLa or H4 cells stably expressing GFP-LC3 were seeded in 96-well imaging plates (BD Falcon, Sparks, USA) 24 h before stimulation. Cells were treated with the indicated agents for 4 h. Subsequently, cells were fixed with 4% PFA and counterstained with 10 μM Hoechst 33342. Images were acquired using a BD pathway 855 automated microscope (BD Imaging Systems, San Jose, USA) equipped with a 40× objective (Olympus, Center Valley, USA) coupled to a robotized Twister II plate handler (Caliper Life Sciences, Hopkinton, USA). Images were analyzed for the presence of GFP-LC3 puncta in the cytoplasm by means of the BD Attovision software (BD Imaging Systems). Cell surfaces were segmented and divided into cytoplasmic and nuclear regions according to manufacturer standard proceedings. RB 2×2 and Marr-Hildreth algorithms were used to recognize cytoplasmic GFP-LC3 positive dots. Statistical analyses were implemented on the R software (http://www.r-project.org/). For quantitative analyses of protein acetylation, cell surfaces were segmented into cytoplasm and nuclei regions, and staining intensity of each individual cell was measured for statistical analysis.
Cells were fixed with 4% PFA for 15 min at room temperature, and permeabilized with 0.1% Triton X-100 for 10 min. For cytoplasmic Acetyl Lysine staining, we proceeded as described in 35. Non-specific binding sites were blocked with 5% bovine serum albumin in PBS, followed by incubation with primary antibodies overnight at 4° C. After 1 hour incubation, appropriate Alexa-conjugated Fluorophores (Invitrogen) were used for antigen detection. Ten μM Hoechst 33342 (Molecular Probes-Invitrogen, Eugene, USA) was employed for nuclear counterstaining Fluorescence wide-field and confocal microscopyassessments were performed on an DM IRE2 microscope (Leica Microsystems, Wetzlar, Germany) equipped with a DC300F camera and with an LSM 510 microscope (Carl Zeiss, Jena, Germany), respectively.
U2OS and H4 cells stably expressing GFP-LC3 were seeded in 96-well or 384-well imaging plates (BD Falcon, Sparks, USA). 24 h before stimulation, ells were treated with the indicated agents for 6 hours in absence of lysososomal ATPase inhibitors and for 3 hours in presence of Bafilomycin A1. Subsequently, cells were fixed with 4% PFA and counterstained with 10 μM Hoechst 33342. Images were acquired using a BD pathway 855 automated microscope (BD Imaging Systems, San Jose, USA) equipped with a 40× objective (Olympus, Center Valley, USA) coupled to a robotized Twister II plate handler (Caliper Life Sciences, Hopkinton, USA). […]

SMILES	AcCoA levels (AcCoA levels)	cytosolic AcCoA levels (AcCoA levels)	cytoplasmic protein acetylation [1]	AcCoA levels in starved cells (AcCoA levels)	cytoplasmic protein acetylation in starved cells [1]	cytoplasmic protein acetylation ([1]; listed as Hydroxycitrate)
O=C(O)c1cccc(C(=O)O)c1C(=O)O [BTC, 1,2,3-benzenetricarboxylate]	reduced both AcCoA levels	induced the triad of AcCoA depletion	reduced both AcCoA levels (A) and cytoplasmic protein acetylation; also recorded: protein deacetylation	–	–	–
COC(=O)CCC(=O)C(=O)OC [DMKG, dimethyl-α-ketoglutarate]	–	also raised the cytosolic concentration of AcCoA	–	increased cellular AcCoA levels; also recorded: maintained high AcCoA	increased cellular AcCoA levels (E) and cytoplasmic protein acetylation; also recorded: maintained high AcCoA and cytoplasmic acetylation levels	–
O=C(O)CC(O)(C(=O)O)C(O)C(=O)O (stereo not drawn) [HC, hydroxycitrate]	reduced both AcCoA levels	reduced cytoplasmic AcCoA levels	reduced both AcCoA levels (E, I) and cytoplasmic protein acetylation; also recorded: induced cytosolic protein deacetylation; also recorded: induced cytoplasmic protein deacetylation	–	–	reduces cytoplasmic; also recorded: reduced cytoplasmic protein acetylation
CC(C)CC(=O)C(=O)O [KIC, ketoisocaproic acid]	–	also raised the cytosolic concentration of AcCoA	–	increase in AcCoA levels; also recorded: sufficient to avoid AcCoA depletion	increase in AcCoA levels (A) and cytoplasmic protein acetylation; also recorded: sufficient to avoid AcCoA depletion and protein deacetylation	–
O=C(O)CCCCC1CCSS1 (stereo not drawn) [LA, lipoic acid]	–	also raised the cytosolic concentration of AcCoA	–	increased both cellular AcCoA levels; also recorded: maintain high AcCoA	increased both cellular AcCoA levels (K) and cytoplasmic protein acetylation; also recorded: maintain high AcCoA and cytoplasmic acetylation levels	–
N#CC(=Cc1cn(-c2ccccc2)c2ccccc12)C(=O)O [UK5099, 2-Cyano-3-(1-phenyl-1H-indol-3-yl)-2-propenoic acid]	reduced both AcCoA levels; also recorded: depletion of intracellular AcCoA	also raised the cytosolic concentration of AcCoA	reduced both AcCoA levels (A, E) and cytoplasmic protein acetylation; also recorded: deacetylation of cytoplasmic proteins	–	–	–
CC(C)C[C@H](N)C(=O)O [leucine]	–	–	–	sufficient to maintain high AcCoA levels	sufficient to maintain high AcCoA levels and cytoplasmic protein acetylation	–

From US11040052B2, “Methods and pharmaceutical compositions for modulating autophagy in a subject in need thereof” (INSERM (INSTITUT NATIONAL DE LA SANTE ET DE LA RECHERCHE …, priority 2013, dated 2021)
